We go through ten molecules from PubChem BioAssay (NCI).

Values joined by “and” are separate entries in the source; they are usually repeats but may differ in a detail not shown here. Equal values may be shown once.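 The compound was tested at five concentrations on cells cultured in 96-well plates, with a 48-hour exposure period. Abbreviation: GI50, concentration required for 50% inhibition of growth. The concentration for full growth arrest is given as TGI.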 Bounds are passed on as bounds.

Among the test systems are BT-549 breast; HL-60(TB) leukemia; NCI-H226 lung; NCI-H23 lung; PC-3 prostate; RXF 393 renal; SK-MEL-2 melanoma; SK-MEL-5 melanoma; SN12C renal; UACC-257 melanoma.
Assay in all cases: NCI tumour cell line growth inhibition, 48 h

`O=c1c(OC/C(=N/O)c2ccccc2)c(-c2ccccc2)oc2ccccc12`: the GI50 is 13.2 µM in the assay on BT-549 breast; 12.6 µM in the assay with HL-60(TB) leukemia; 21.3 µM in the assay on NCI-H226 lung; 18.1 µM in the assay with NCI-H23 lung; 8.64 µM in the assay with PC-3 prostate; 20.8 µM in the assay on RXF 393 renal. For the same molecule, the GI50 in the assay on SK-MEL-2 melanoma was 16.4 µM; in the assay on SK-MEL-5 melanoma, 7.88 µM; in the assay on SN12C renal, 11.2 µM; in the assay on UACC-257 melanoma, 14.1 µM. In addition, the TGI with BT-549 breast is 26.8 µM; in the assay with HL-60(TB) leukemia it was more than 50 µM; in the assay with NCI-H226 lung, more than 50 µM; in the assay with NCI-H23 lung it was more than 50 µM; in the assay on PC-3 prostate, 18 µM; with RXF 393 renal, more than 50 µM. Besides, the TGI in the assay with SK-MEL-2 melanoma is more than 50 µM; in the assay on SK-MEL-5 melanoma, 15 µM; in the assay with SN12C renal it was 28.7 µM; in the assay with UACC-257 melanoma it was 30.4 µM.

Take `Cn1cnc([N+](=O)[O-])c1Sc1ncnc2nc[nH]c12`: the GI50 in the assay with BT-549 breast is 12.2 µM and 7.26 µM; with HL-60(TB) leukemia it was 11 µM and 16.9 µM; in the assay with NCI-H226 lung, 7.17 µM and > 27.2 µM; in the assay with NCI-H23 lung, 4.01 µM and 13.3 µM; with PC-3 prostate it was 25.6 µM and 45.9 µM; with RXF 393 renal it was 35.2 µM. The GI50 in the assay on SK-MEL-5 melanoma was 12.1 µM and 14.4 µM; with SN12C renal, 20.5 µM and 36.4 µM; in the assay on UACC-257 melanoma, 7.86 µM and 8.71 µM. Further, the TGI in the assay with BT-549 breast was more than 100 µM; in the assay with HL-60(TB) leukemia it was 71 µM and > 64.7 µM; with NCI-H226 lung, more than 100 µM; with NCI-H23 lung it was more than 100 µM; in the assay on PC-3 prostate, more than 100 µM; in the assay with RXF 393 renal it was more than 100 µM. Moreover, the TGI in the assay with SK-MEL-2 melanoma, with SK-MEL-5 melanoma, in the assay on SN12C renal and in the assay with UACC-257 melanoma was more than 100 µM each time.

With `c1ccc2c(NCCCCCCCCNc3c4ccccc4nc4ccccc34)c3ccccc3nc2c1`, the TGI came to 2.76 µM with BT-549 breast; 2.59 µM in the assay on NCI-H226 lung; 1.73 µM in the assay on NCI-H23 lung; 1.67 µM with PC-3 prostate; 0.387 µM in the assay on RXF 393 renal; 2.23 µM in the assay with SK-MEL-2 melanoma. Also, the TGI in the assay with SK-MEL-5 melanoma worked out at 2.71 µM; in the assay on SN12C renal, 2.18 µM; in the assay on UACC-257 melanoma, 3.02 µM.

For the molecule `OC1CCC(Oc2cccc3cnc(Nc4ccc5nc[nH]c5c4)nc23)CC1` (stereo not given), the GI50 was 0.22 µM in the assay on BT-549 breast; 0.155 µM in the assay with HL-60(TB) leukemia; 0.21 µM in the assay on NCI-H23 lung; 0.254 µM in the assay with PC-3 prostate; 0.208 µM with RXF 393 renal; 0.873 µM in the assay on SK-MEL-2 melanoma. The GI50 in the assay with SK-MEL-5 melanoma is 0.47 µM; with SN12C renal it was 0.392 µM; with UACC-257 melanoma it was 1.2 µM. Besides, the TGI in the assay with BT-549 breast amounted to 0.906 µM; in the assay with HL-60(TB) leukemia, 0.447 µM; in the assay on NCI-H23 lung it was 1.63 µM; in the assay with PC-3 prostate it was 20.7 µM; with RXF 393 renal, 0.504 µM; in the assay on SK-MEL-2 melanoma it was 2.93 µM. For the same molecule, the TGI amounted to 6.51 µM in the assay on SK-MEL-5 melanoma, 72.7 µM with SN12C renal and 8.92 µM with UACC-257 melanoma.

Regarding `CN(C)CN1C(=O)S/C(=C2\C(=O)N(CN(C)C)c3ccccc32)C1=O`, the TGI was more than 100 µM in the assay on BT-549 breast; 37.2 µM with HL-60(TB) leukemia; more than 100 µM in the assay with NCI-H226 lung; 49.2 µM with NCI-H23 lung; more than 100 µM in the assay with PC-3 prostate; 75 µM in the assay with RXF 393 renal. Besides, the TGI was more than 100 µM with SK-MEL-2 melanoma, more than 100 µM with SK-MEL-5 melanoma, 69.4 µM with SN12C renal and more than 100 µM in the assay on UACC-257 melanoma.

With `O=C(Nc1ccc(Br)cc1)c1cc(Br)cc(Br)c1O`, the GI50 in the assay on BT-549 breast was 3.08 µM; in the assay with NCI-H226 lung, 3.45 µM; with NCI-H23 lung it was 2.18 µM; in the assay with PC-3 prostate it was 2.65 µM; in the assay on SK-MEL-2 melanoma it was 2.27 µM; in the assay on SK-MEL-5 melanoma it was 2.15 µM. Also, the GI50 in the assay on SN12C renal is 2.77 µM; in the assay on UACC-257 melanoma it was 2.08 µM. For the same molecule, the TGI in the assay on BT-549 breast worked out at 14.4 µM; in the assay on NCI-H226 lung, 12.3 µM; in the assay on NCI-H23 lung it was 6.8 µM; with PC-3 prostate, 8.82 µM; in the assay on SK-MEL-2 melanoma, 6.12 µM; in the assay on SK-MEL-5 melanoma, 4.57 µM. Also, the TGI with SN12C renal came to 12.9 µM; with UACC-257 melanoma, 5.41 µM.

Consider `CN(C)CCNC(=O)c1cccc(CO)c1[N+](=O)[O-]`, for which the TGI in the assay on BT-549 breast, in the assay with HL-60(TB) leukemia, in the assay with NCI-H226 lung, in the assay with NCI-H23 lung, in the assay with PC-3 prostate and in the assay with SK-MEL-2 melanoma was more than 100 µM in each case. Also, the TGI with SK-MEL-5 melanoma, in the assay on SN12C renal and with UACC-257 melanoma was more than 100 µM throughout.

Turning to `CC(O)C(NC(=O)C(CS)NC(=O)C(CO)NC(=O)C(CCCCN)NC(=O)C(Cc1c[nH]c2ccccc12)NC(=O)C(Cc1ccc(O)cc1)NC(=O)C(CS)NC(=O)C(N)Cc1ccccc1)C(N)=O` (stereo not given), the GI50 with HL-60(TB) leukemia was 21.5 µM; with RXF 393 renal it was 14.5 µM; with SK-MEL-2 melanoma, 22 µM; with SN12C renal, 28.6 µM. The TGI with HL-60(TB) leukemia is > 25 µM and 40.5 µM; in the assay on NCI-H226 lung, more than 25 µM; in the assay on NCI-H23 lung it was > 25 µM and 68 µM; with PC-3 prostate, more than 25 µM; with RXF 393 renal, > 25 µM and 36.6 µM; in the assay on SK-MEL-2 melanoma, > 25 µM and 49.5 µM. The TGI is more than 25 µM with SK-MEL-5 melanoma; > 25 µM and 84.2 µM in the assay with SN12C renal; > 25 µM and 65.9 µM in the assay on UACC-257 melanoma.

As for `O=C(O)c1nnsc1COCc1ccccc1`, the TGI with BT-549 breast, in the assay with NCI-H23 lung, with PC-3 prostate, in the assay with RXF 393 renal, with SK-MEL-2 melanoma and in the assay with SK-MEL-5 melanoma was more than 100 µM in each case. For the same molecule, the TGI in the assay on SN12C renal and in the assay with UACC-257 melanoma was more than 100 µM each time.

`O=C1C=C(c2cc(Br)c(O)c(Br)c2)/C(=C/c2cc(Br)c(O)c(Br)c2)O1`: the GI50 in the assay with BT-549 breast was 28.6 µM; in the assay on NCI-H226 lung, 43.6 µM; with NCI-H23 lung, 35.2 µM; with PC-3 prostate, 25 µM; in the assay with RXF 393 renal it was 1.82 µM; in the assay on SK-MEL-2 melanoma it was 38.5 µM. The values for the GI50 in the assay with SK-MEL-5 melanoma, in the assay on SN12C renal and with UACC-257 melanoma were 29 µM, 36.5 µM and more than 75 µM, respectively. Moreover, the TGI in the assay with BT-549 breast is more than 75 µM; in the assay on NCI-H226 lung, more than 75 µM; in the assay with NCI-H23 lung, more than 75 µM; in the assay with PC-3 prostate it was more than 75 µM; in the assay on RXF 393 renal, 23.6 µM; with SK-MEL-2 melanoma it was more than 75 µM. The TGI in the assay with SK-MEL-5 melanoma, in the assay with SN12C renal and in the assay on UACC-257 melanoma was more than 75 µM throughout.
